Entries after “also recorded” stand apart in the source; their conditions may differ. No end group written: not given here.
What was measured:
[1] = system: spontaneous Type 1 diabetes; test: Spontaneous type 1 diabetes in NOD mice; assay type: in vivo; conditions: iv at 6, 8, and 10 weeks of age; diabetes = blood glucose >250 mg/dL
Procedure: NOD mice were treated with either BSA (N=22) or insulin (N=23) coupled PLG particles via intravenous administration at 6, 8, and 10 weeks of age. The mice were then assayed for the development of diabetes which was defined as blood glucose >250 mg/dL.

[2] = system: PLP139-151/CFA-induced EAE; test: Anaphylaxis on iv injection during EAE remission; assay type: in vivo, SJL/J mice; conditions: iv on day 21 (remission) relative to disease induction
Procedure: EAE was induced in six to eight week old female SJL/J mice by subcutaneous injection of PLP139-151 in CFA, and development of clinical disease was monitored and recorded (FIG. 5B). On day 21 relative to disease induction, mice were given iv injections of soluble PLP139-151 (clear squares), soluble OVA323-339 (clear circles), or the same peptides coupled to PLG nanoparticles (solids). Temperature of animals was monitored and recorded every 10 minutes for 1 hour following injection (FIG. 5A).

[3] = system: adoptive EAE (PLP139-151-activated blasts); test: Therapeutic tolerance in adoptive transfer (and active) EAE; assay type: in vivo, SJL/J mice
Procedure: Experiments were conducted during development of embodiments of the present invention to investigate a second model of active disease termed adoptive transfer. Rather than immunizing the animals with the peptide, the lymphocytes from the spleen of mice with active disease were transferred to a recipient, who would subsequently develop disease. Experiments were conducted during development of embodiments of the present invention to characterize the ability of the PLG nanoparticles to deactivate the adoptively transferred activated effector cells.
Therapeutic tolerance induced by PLP139-151-PLG particles was compared in active and adoptive EAE. Adoptive EAE was induced in six to eight-week old female SJL/J mice by adoptive transfer of 2.5×10^6 PLP139-151-activated blasts. Mice were injected iv with PLP139-151 (squares) or OVA323-339 (circles) peptide coupled to 500 nm PLG nanoparticles 2 days (FIG. 14A), 14 days (FIG. 14C), 18 days (FIG. 14E), or 21 days (FIG. 14F) following disease induction. Clinical disease scores were compared to those following treatment with antigen-coupled splenocytes (FIG. 14A). Brain and spinal cord were collected from PLP139-151- or OVA323-339-tolerized mice for histological analysis on day 42. Sections from mice from panel A were stained for PLP protein and CD45 (FIG. 14B).
Mice were injected iv with PLP139-151-SP, PLP139-151-PLG, or OVA323-339-SP, or OVA323-339-PLG peptide coupled to 500 nm nanoparticles 10 days (FIG. 15A) or 2 days (FIG. 15B) following disease induction and the mean clinical score was determined.
SJL/J mice were injected i.v. with 500 nm PLG nanoparticles coupled with PLP139-151 (squares) or OVA323-339 (circles) 2 days following EAE induction by adoptive transfer. At the peak of disease (day 14) brains and spinal cords were removed and the number of lymphocytes (FIG. 16B), APCs (FIG. 16C), microglia (FIG. 16D), peripheral dendritic cells (FIG. 16E), myeloid dendritic cells (FIG. 16F) and macrophages (FIG. 16G) were enumerated by flow cytometry. The gating strategy for these populations is depicted in (FIG. 16A). CNS cell preparations were stimulated with PMA and ionomycin for 5 h prior to intracellular staining for IL-17A and IFN-γ (FIG. 16H).
To test the effect of treatment with an anti-PD-1 antibody on PLP139-151 induced tolerance in mice with adoptive EAE, on Day 0, mice received 3×10^6 PLP139-151 activated T-cell blasts via intravenous administration. On Day 2, they received PLP139-151 or OVA323-339 encapsulated in PLG particles via intravenous administration with either PBS or an anti-PD-1 antibody. On days 4, 6, 8, 10, and 12 all animals received either 250 μg anti-PD-1 antibody or PBS. […]

[4] = system: Relapsing Experimental Autoimmune Encephalitis (R-EAE); test: Treatment of R-EAE at day 10 by different routes of administration; assay type: in vivo, mice
Procedure: Experiments were conducted during development of embodiments of the present invention to investigate the ability of the PLG-PLP139-151 particles to treat disease rather than prevent disease, and to determine whether the route of administration affected the development of disease. Mice were immunized at day 0 with PLP139-151 and an adjuvant. Mice normally have maximal clinical scores at day 12-14. In this model, the mice were treated at day 10 with the PLG-PLP139-151 particles or with control PLG-OVA323-339 particles either via intravenous (iv) administration, intraperitoneal (ip) administration, subcutaneous (sc) administration, or orally. […] This is in contrast to animals treated with PLP139-151 polystyrene particles, whereby >70% of animals where observed to die from anaphylaxis.

[5] = system: Relapsing Experimental Autoimmune Encephalitis (R-EAE); test: Prophylactic tolerance induction in PLP139-151/CFA-induced R-EAE; assay type: in vivo, SJL/J mice; conditions: for clinical score (disease induction): 500 nm particles given on day −7 relative to immunization, N=5
[6] = system: cervical spinal cord of R-EAE mice; test: Spinal cord histology and in vivo imaging in EAE
Procedure: An additional therapeutic tolerance strategy was performed by delivering PLP139-151-PLG or OVA323-339 PLG to mice. […] Mice were treated with PLP-PLG or OVA323-339-PLG and the tissue was retrieved at day 40. The cervical spinal cord was isolated and sectioned to investigate the immune response within the CNS, which underlies the pathology of R-EAE and multiple sclerosis.
Animals were treated with Complete Freund's Adjuvant (CFA), OVA323-339 PLG particles, or PLP139-151-PLG particles. The clinical scores and percent incidence of EAE were determined (FIG. 10B) and the spinal cords observed via in vivo imaging (FIGS. 10A and 11). […] The bar graphs give the numerical numbers to the signal strength shown in the brain and SC scans.

[7] = system: Th1 and Th17 responses; test: Induction of antigen-specific Th1 and Th17 responses (draining lymph node cells); assay type: in vivo, BALB/c mice; conditions: particles iv Day −7; measured at Day 10
Procedure: To determine whether administration of antigen-coupled particles inhibit induction of T-helper cells, either MOG35-55-PLG or OVA323-339-PLG particles were administered intravenously to BALB/c mice at Day −7. On Day 0, OVA323-339-PLG particles and Complete Freund's Adjuvant (CFA) were administered subcutaneously to the mice. The animals were re-stimulated with either MOG35-55-PLG or OVA323-339-PLG particles on Day 10 and the draining lymph node cells were isolated. The CPM and levels of IL-17, GM-CSF, IFN-γ, IL-10, and IL-4 were measured at Day 10.

[8] = system: OVA/Alum pre-sensitized mice; test: Anaphylaxis-induced temperature drop in OVA/Alum pre-sensitized animals; assay type: in vivo; conditions: iv on day 28; within 1 hour of delivery
Procedure: Due to the presence of active disease, anaphylaxis to the antigens is a concern, which could result in immediate mortality, and has been described with polystyrene bound particles. Anaphylaxis is associated with a significant drop in body temperature. To test whether intravenous administration of OVA-PLG induces an anaphylaxis-induced temperature drop in pre-sensitized animals, mice were immunized at day 0 with 10 μg OVA/Alum via intraperitoneal injection. On day 14, the mice were again immunized with 10 μg OVA/Alum via intraperitoneal injection, and then tolerized with OVA-PLG administered intravenously on day 21. On day 28, the mice were then tolerized with either OVA-PLG particles or OVA via intravenous administration.

insulin coupled PLG particles: insulin coupled PLG particles
percentage of mice that did not develop diabetes over 300 days [1]: 69.6%

PLP139-151-PLG: immunodominant proteolipid protein PLP139-151 epitope coupled to 500 nm PLG nanoparticles
anaphylaxis-associated mortality [2]: does not result in any anaphylaxis-associated mortality | tolerance induction (mean clinical score) in active and adoptive EAE ([3]; 500 nm particles iv after disease induction (10 days active, 2 days adoptive)): tolerance is induced; also recorded: reduced disease; also recorded: induces tolerance | infiltration of central nervous system immune cells ([3]; iv 2 days after adoptive transfer, brains and spinal cords at day 14, flow cytometry): drastically reduced | mean clinical score ([3]; treated at day 2, all but two time points through day 40): 0 | mean clinical score at the other two time points ([3]; treated at day 2, through day 40): 0.25 | mean clinical scores ([4]; administered intravenously, at most time points): 0 | efficiency of tolerance by route of administration ([4]; treated at day 10, iv, ip, sc or oral): most efficient when the PLG-PLP139-151 particles are administered either intravenously or intraperitoneally | clinical scores between days 20 and 30 ([5]; 500 nm particles given on day −7, days 20 to 30): under 1 | clinical score (disease induction) ([5]; listed as PLG-PLP139-151): specifically prevented EAE development | clinical score (disease induction) ([5]; listed as PLP139-151-PLGA): 0 | mean clinical score with anti-CD25 antibody compared with control IgG antibody ([5]; anti-CD25 on Day −9, particles plus antibody on Day −7): greater mean clinical score | delayed-type hypersensitivity (DTH) responses to immunizing PLP139-151 epitope ([5]; prophylactic treatment on day −7): lack of delayed-type hypersensitivity (DTH) responses | induction of R-EAE by type of particle (mean clinical score, mean cumulative score) ([5]; treated on day −7, N=5 per group): more effective in down-regulating induction of R-EAE | blood brain barrier (BBB) disruption and macrophage activation in the spinal cord ([6]; in vivo imaging (Angiosense, prosense)): inhibits blood brain barrier (BBB) disruption and macrophage activation | immune cell infiltration, inflammation and demyelination of the spinal cord ([6]; tissue retrieved at day 40): inhibits cervical spinal cord inflammation and demyelination; also recorded: reduction in immune cell infiltration within the spinal cord | staining for CD45, CD4, and CD11b in spinal cord ([6]; tissue retrieved at day 40): minimal staining

PLP139-151 polystyrene particles: PLP139-151 bound to polystyrene particles (CHCLGKWLGHPDK; cysteine pairing not given here; also: bound to polystyrene particles; UniProt P60202 139-151, looked up, fragment) [reference compound]
animals observed to die from anaphylaxis ([4]; mouse, in vivo): > 70%

OVA323-339-PLG: control peptide OVA323-339 coupled to PLG particles (KISQAVHAAHAEINEAG; also: coupled to PLG particles; UniProt P01012 323-339, looked up, fragment) [reference compound]
Th1 and Th17 responses (CPM, IL-17, GM-CSF, IFN-γ, IL-10, IL-4) [7]: inhibited the Th1 and Th17 responses | clinical score (disease induction) [5]: did not prevent disease induction | staining for CD45, CD4, and CD11b in spinal cord ([6]; tissue retrieved at day 40): positive staining

BSA coupled PLG particles: BSA coupled PLG particles (control) [reference compound]
percentage of mice that did not develop diabetes over 300 days [1]: 22.7%

B1: soluble OVA: soluble ovalbumin given intravenously (protein, UniProt P01012 2-386, looked up)
Ovalbumin: GSIGAASMEFCFDVFKELKVHHANENIFYCPIAIMSALAMVYLGAKDSTRTQINKVVRFDKLPGFGDSIEAQCGTSVNVHSSLRDILNQITKPNDVYSFSLASRLYAEERYPILPEYLQCVKELYRGGLEPINFQTAADQARELINSWVESQTNGIIRNVLQPSSVDSQTAMVLVNAIVFKGLWEKAFKDEDTQAMPFRVTEQESKPVQMMYQIGLFRVASMASEKMKILELPFASGTMSMLVLLPDEVSGLEQLESIINFEKLTEWTSSNVMEERKIKVYLPRMKMEEKYNLTSVLMAMGITDVFSSSANLSGISSAESLKISQAVHAAHAEINEAGREVVGSAEAGVDAASVSEEFRADHPFLFCIKHIATNAVLFFGRCVSP
body temperature [8]: decrease in temperature

— patent US12533403B2, “Peptide conjugated particles” (NORTHWESTERN UNIVERSITY, priority 2013, dated 2026)
